Test [1] addresses HDAC2 (Homo sapiens, UniProt Q92769). Type of test: biochemical. As to conditions: read-out: HDAC inhibitory activity IC50, HDAC2.
The target in test [2] is HDAC1 (Homo sapiens, UniProt Q13547). The test is described as follows: homogeneous trypsin-coupled fluorigenic HDAC assay, HDAC1. As to conditions: isostere versus corresponding depsipeptide natural product (active thiol forms).

Structures are written as SMILES. A value given as a limit tells only on which side of the number the result lay.

Sequence of HDAC1 (Q13547 whole entry): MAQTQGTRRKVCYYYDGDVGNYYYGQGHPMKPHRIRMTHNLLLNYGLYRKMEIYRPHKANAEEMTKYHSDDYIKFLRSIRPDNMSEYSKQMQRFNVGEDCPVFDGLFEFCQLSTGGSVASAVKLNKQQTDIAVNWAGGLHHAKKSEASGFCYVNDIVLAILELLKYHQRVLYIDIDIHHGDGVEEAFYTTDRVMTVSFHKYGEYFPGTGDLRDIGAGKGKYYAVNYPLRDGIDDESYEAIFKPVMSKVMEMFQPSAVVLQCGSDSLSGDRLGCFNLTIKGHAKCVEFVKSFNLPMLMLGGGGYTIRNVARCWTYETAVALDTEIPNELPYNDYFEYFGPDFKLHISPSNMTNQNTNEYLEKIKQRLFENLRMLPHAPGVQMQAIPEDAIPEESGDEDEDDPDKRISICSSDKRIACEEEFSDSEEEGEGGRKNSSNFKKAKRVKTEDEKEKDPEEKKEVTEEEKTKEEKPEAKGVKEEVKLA
Sequence of HDAC2 (Q92769 whole entry): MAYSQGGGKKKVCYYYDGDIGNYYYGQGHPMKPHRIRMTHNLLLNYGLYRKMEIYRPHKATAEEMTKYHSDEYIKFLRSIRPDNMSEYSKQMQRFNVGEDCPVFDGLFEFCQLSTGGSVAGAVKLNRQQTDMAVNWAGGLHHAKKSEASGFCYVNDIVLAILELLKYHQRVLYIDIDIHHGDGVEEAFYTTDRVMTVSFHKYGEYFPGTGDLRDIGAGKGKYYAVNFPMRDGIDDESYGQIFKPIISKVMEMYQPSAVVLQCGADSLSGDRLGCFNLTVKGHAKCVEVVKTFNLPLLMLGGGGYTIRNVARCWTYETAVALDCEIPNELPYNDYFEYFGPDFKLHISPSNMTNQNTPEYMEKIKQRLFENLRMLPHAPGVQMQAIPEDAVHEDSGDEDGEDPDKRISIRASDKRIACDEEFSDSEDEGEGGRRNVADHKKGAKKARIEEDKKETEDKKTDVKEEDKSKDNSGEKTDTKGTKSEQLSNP

On to `CCCCCCCC(=O)SCC/C=C/[C@@H]1CC(=O)NCc2nc(cs2)C2=N[C@@](C)(CS2)C(=O)N[C@@H](C(C)C)C(=O)N1` [Largazole Isostere (11)], for which, in test [1], the concentration for half-maximal inhibition (IC50) was above 3000 nM.

`CC(C)[C@@H]1NC(=O)[C@]2(C)CSC(=N2)c2csc(n2)CNC(=O)C[C@@H](/C=C/CCS)NC1=O` [Largazole Isostere Thiol (31)]: the “fold less potent against HDAC1 than the parent natural product” value in test [2] was 9 fold.

These data come from publication PMC2880701 (Journal of the American Chemical Society, 2009).
